From PMC8571052 (ChemMedChem, 2021) come the findings set out here.

Holding throughout (assay type): cell-based, human
In one assay the test system is IMR90. Briefly: PrestoBlue cell viability assay, lung fibroblasts IMR90. To be noted: IMR90, 24 h incubation.
A further assay relates to MDA-MB-468. Briefly: PrestoBlue cell viability assay, MDA-MB-468. The note with it: MDA-MB-468, 24 h incubation.
Assay [1] has as its system MDA-MB-231. Briefly: PrestoBlue cell viability assay, MDA-MB-231. To be noted: for IC50: MDA-MB-231, 24 h incubation, PrestoBlue.
In assay [2] the test system is HCC-1806. Briefly: PrestoBlue cell viability assay, HCC-1806. The note with it: for IC50: HCC-1806, 24 h incubation, PrestoBlue.
The next assay relates to MCF10a. Briefly: PrestoBlue cell viability assay, non-malignant breast cells MCF10a. To be noted: 24 h incubation.
For assay [3], the system named is HCC-1806. Briefly: Cell death assay. The note with it: HCC-1806, IC50 concentration, 24 h, Annexin V/PI.
For assay [4], the system named is HCC-1806. Briefly: Cell invasion, 3D Transwell assay with Geltrex matrix, HCC-1806. To be noted: 24 h.
Assay [5] has as its system MDA-MB-231. Briefly: Cell cycle profile. The note with it: MDA-MB-231, IC20 concentration, 24 h; non-treated cells 16%.
In assay [6] the test system is HCC-1806. Briefly: Cell migration, 2D wound-healing scratch assay, HCC-1806. The note with it: 24 h.
For assay [7], the system named is MDA-MB-231. Briefly: Cell invasion, 3D Transwell assay with Geltrex matrix, MDA-MB-231. To be noted: MDA-MB-231, IC20 concentration, 24 h.
Assay [8] deals with HUVEC. Briefly: IC10 concentration in HUVEC cells.
The subject of assay [9] is HUVEC. Briefly: Endothelial tube formation assay. The note with it: IC10 concentration.
Assay [10] relates to MDA-MB-231. Briefly: Cell death assay. To be noted: MDA-MB-231, IC50 concentration, 24 h, Annexin V/PI.

In general, IC50 refers to the concentration at which inhibition is half-maximal. Higher therefore signals lower potency. In general, IC20 refers to the concentration needed for an effect of 20%.

As to `N.N.[Cl][Pt][Cl]` [cisplatin], the IC50 worked out at 149 ± 13.1 µM with IMR90; 44.2 ± 2.1 µM with MDA-MB-468; 132 ± 18 µM with MDA-MB-231 [1]; 163 ± 5.86 µM in the assay on HCC-1806 [2]; 32.9 ± 6.68 µM in the assay on MCF10a.

`Cc1ccc(C(C)C)cc1.[Cl][Ru]([Cl])[PH]12CN3CN(CN(C3)C1)C2` [RAPTA-C, [Ru(η^6-p-cymene)Cl2(1,3,5-triaza-7-phosphaadamantane])] yielded an apoptosis in the assay on HCC-1806 [3] of 27.25%. The 50% inhibitory concentration (IC50) with IMR90, in the assay on MDA-MB-468, in the assay on MDA-MB-231 [1], in the assay with HCC-1806 [2] and in the assay with MCF10a was greater than 300 µM throughout. In addition, the invasion reduction came to 41.2% in the assay with HCC-1806 [4] (HCC-1806, IC20 concentration) and 66.9% in the assay with MDA-MB-231 [7]. Besides, the “reduction of the antiinvasive properties in HCC-1806 with respect to MDA-MB-231” value in the assay with HCC-1806 [4] (IC20 concentration) is recorded as 25.7%. The “cells in G2/M arrest” value with MDA-MB-231 [5] is listed as 23%. The molecule also showed a reduction of migration with HCC-1806 [6] (HCC-1806, IC20 concentration) of 42.7%. The “decrease in antimigratory properties in HCC-1806 with respect to MDA-MB-231” value with HCC-1806 [6] (IC20 concentration) is recorded as “ca. 17.6%”. Besides, the IC10 concentration in the assay with HUVEC [8] was found to be 150 µM. Besides, the “disruption in tube length (TL)” value in the assay on HUVEC [9] is recorded as 22%. For the same molecule, the “disruption of tube length (first statement)” value in the assay on HUVEC [9] stood at 27%. For the same molecule, the 20% effect concentration (IC20) in the assay on MDA-MB-231 [1] (read-out: IC20 values employed, MDA-MB-231 (same value for both cell lines)) is 250 µM; with HCC-1806 [2] (read-out: IC20 values employed, HCC-1806 (same value for both cell lines)), 250 µM. Also, the “cells that die by apoptosis” value in the assay with MDA-MB-231 [10] stood at 30.8%.
